ChEMBL document CHEMBL1201862, “PubChem BioAssay data set” (2004)
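Exposure lasted 48 hours, with cells grown in 96-well plates and compounds tested at five concentrations. GI50 is the concentration that inhibits growth by half.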 Active and inactive are the calls of the source. Cut-off read from the data, not from the text of the source: active = GI50 up to about 1.1 µM and inactive = higher.

What was measured:
Assay in all cases: NCI anticancer screen, dose series, 48 h
OVCAR-8 = system: OVCAR-8
CAKI-1 = system: CAKI-1
SK-MEL-28 = system: SK-MEL-28
RPMI-8226 = system: RPMI-8226
NCI-H522 = system: NCI-H522
NCI-H23 = system: NCI-H23
TK-10 = system: TK-10
SW-620 = system: SW-620
DLD-1 = system: DLD-1
KM-20L2 = system: KM-20L2
U-251 = system: U-251
SN12C = system: SN12C
SK-OV-3 = system: SK-OV-3
M19-MEL = system: M19-MEL
SNB-78 = system: SNB-78
IGROV-1 = system: IGROV-1
KM12 = system: KM12
HCC 2998 = system: HCC 2998
SF-268 = system: SF-268
HOP-18 = system: HOP-18
SF-539 = system: SF-539
K562 = system: K562
SR = system: SR
EKVX = system: EKVX
HCT-116 = system: HCT-116
786-0 = system: 786-0
SK-MEL-5 = system: SK-MEL-5
SNB-19 = system: SNB-19
DMS-114 = system: DMS-114
MOLT-4 = system: MOLT-4
HT-29 = system: HT-29
LOX IMVI = system: LOX IMVI
UACC-257 = system: UACC-257
UACC-62 = system: UACC-62
SNB-75 = system: SNB-75
OVCAR-4 = system: OVCAR-4
RXF 393 = system: RXF 393
LXFL 529 = system: LXFL 529
DMS-273 = system: DMS-273
NCI-H226 = system: NCI-H226
ACHN = system: ACHN
HCT-15 = system: HCT-15
UO-31 = system: UO-31
SF-295 = system: SF-295
HOP-62 = system: HOP-62
Malme-3M = system: Malme-3M
A549 = system: A549
COLO 205 = system: COLO 205
M14 = system: M14
OVCAR-5 = system: OVCAR-5
OVCAR-3 = system: OVCAR-3
A498 = system: A498
SK-MEL-2 = system: SK-MEL-2

CN(C)CCNC(=O)c1cc2ccccc2c2nc3ccccc3nc12
GI50 (OVCAR-8): 771 nM (active)
GI50 (CAKI-1): 2670 nM (inactive)
GI50 (SK-MEL-28): 1560 nM (inactive)
GI50 (RPMI-8226): 522 nM (active)
GI50 (NCI-H522): 1890 nM (inactive)
GI50 (NCI-H23): 1170 nM (inactive)
GI50 (TK-10): 1230 nM (inactive)
GI50 (SW-620): 484 nM (active)
GI50 (DLD-1): 447 nM (active)
GI50 (KM-20L2): 946 nM (active)
GI50 (U-251): 986 nM (active)
GI50 (SN12C): 736 nM (active)
GI50 (SK-OV-3): 4970 nM (inactive)
GI50 (M19-MEL): 1010 nM (active)
GI50 (SNB-78): 3550 nM (inactive)
GI50 (IGROV-1): 1450 nM (inactive)
GI50 (KM12): 804 nM (active)
GI50 (HCC 2998): 1100 nM (active)
GI50 (SF-268): 61.7 nM (active)
GI50 (HOP-18): 5820 nM (inactive)
GI50 (SF-539): 845 nM (active)
GI50 (K562): 363 nM (active)
GI50 (SR): 163 nM (active)
GI50 (EKVX): 2060 nM (inactive)
GI50 (HCT-116): 373 nM (active)
GI50 (786-0): 2430 nM (inactive)
GI50 (SK-MEL-5): 1790 nM (inactive)
GI50 (SNB-19): 1430 nM (inactive)
GI50 (DMS-114): 830 nM (active)
GI50 (MOLT-4): 153 nM (active)
GI50 (HT-29): 536 nM (active)
GI50 (LOX IMVI): 413 nM (active)
GI50 (UACC-257): 1450 nM (inactive)
GI50 (UACC-62): 2000 nM (inactive)
GI50 (SNB-75): 1190 nM (inactive)
GI50 (OVCAR-4): 792 nM (active)
GI50 (RXF 393): 1020 nM (active)
GI50 (LXFL 529): 1430 nM (inactive)
GI50 (DMS-273): 448 nM (active)
GI50 (NCI-H226): 841 nM (active)
GI50 (ACHN): 407 nM (active)
GI50 (HCT-15): 522 nM
GI50 (UO-31): 1800 nM (inactive)
GI50 (SF-295): 575 nM (active)
GI50 (HOP-62): 2390 nM (inactive)
GI50 (Malme-3M): 818 nM (active)
GI50 (A549): 977 nM (active)
GI50 (COLO 205): 828 nM (active)
GI50 (M14): 1750 nM (inactive)
GI50 (OVCAR-5): 1940 nM (inactive)
GI50 (OVCAR-3): 2100 nM (inactive)
GI50 (A498): 1140 nM (inactive)
GI50 (SK-MEL-2): 1370 nM (inactive)
